Results as given in US20110262508A1, “ANTIMICROBIAL COMPOSITIONS, FORMULATIONS AND USES THEREOF” (priority 2007, published 2011).
≈ marks a conversion by molar mass, not a printed value. Read-outs that look alike come from different tables or passages of the source. Peptide text beside a SMILES is read from it.

Tested on: A. baumannii
Format: cell-based
Text: Broth dilution methods are e.g., described by Lorian (2007) In: Antibiotics in Laboratory Medicine, Fifth Edition; and In: Clinical and Laboratory Standards Institute, CLSI (formerly NCCLS), In: Methods for Dilution Antimicrobial Susceptibility Tests for Bacteria that Grow Aerobically—Approved Standard—Seventh Edition, CLSI document M7-A7, Villanova, Pa. (NCCLS; January 2006; Vol. 26 No. 2); and In: Clinical and Laboratory Standards Institute, CLSI (formerly NCCLS), Performance Standards for Antimicrobial Susceptibility Testing, Seventeenth Informational Supplement, M100-S17, Vol 27 No. 1 January 2007, all of which are incorporated herein by reference.
The present inventors used such methods to quantitate activity in vitro of antimicrobial peptides of the invention against bacterial isolates, including laboratory strains and 50 clinical isolates of A. baumannii, and S. aureus ATCC Accession No. 2992. Briefly, small volumes of broth are dispensed in sterile, plastic microtiter trays, and 100 μl of serially-diluted antimicrobial peptide (0.1-64 μg) and 100 μl test organism (approximately 1×10^5 C.F.U.), are added. Following aerobic incubation overnight at 35±2° C. Control samples lacked peptide (Growth control), or lacked peptide and bacteria (Sterility control). The trays were examined visually and the minimal inhibitory concentration (MIC) of peptide required to inhibit bacterial growth were determined. The minimum bactericidal concentration (MBC) was estimated by sub-culturing the wells for which no bacterial growth was visible to the naked eye, to thereby determine a concentration of antimicrobial that reduces the original inoculum by at least about 99.9%.

[1] = A. baumannii (Table 8), reduces original inoculum by at least about 99.9%

## CC[C@H](C)[C@H](NC(=O)[C@H](CO)NC(=O)[C@H](Cc1c[nH]c2ccccc12)NC(=O)[C@H](CS)NC(=O)[C@H](CCCNC(=N)N)NC(=O)[C@H](CS)NC(=O)[C@@H](NC(=O)[C@@H](NC(=O)[C@@H]1CCCN1C(=O)[C@H](CCCNC(=N)N)NC(=O)[C@H](C)NC(=O)[C@H](C)NC(=O)[C@H](CS)NC(=O)[C@H](CCCNC(=N)N)NC(=O)[C@H](CCCCN)NC(=O)[C@H](CCCNC(=N)N)NC(=O)[C@@H](N)[C@@H](C)O)[C@@H](C)O)[C@@H](C)O)C(=O)NCC(=O)N[C@@H](CCCNC(=N)N)C(=O)N[C@@H](C)C(=O)N[C@@H](Cc1c[nH]c2ccccc12)C(=O)N[C@@H](CCCCN)C(=O)N[C@@H](C)C(=O)O [Ac364] (H-TRKRCAARPTTCRCWSIGRAWKA-OH; N-terminus and C-terminus assumed)
  MBC: 40 µM (≈ 107 µg/mL)
  MIC: 40 µM (≈ 107 µg/mL)

## CC[C@H](C)[C@H](NC(=O)[C@H](CCC(N)=O)NC(=O)[C@H](CCCNC(=N)N)NC(=O)[C@@H](NC(=O)[C@@H](NC(=O)[C@@H]1CCCN1)C(C)C)C(C)C)C(=O)N[C@@H](CC(C)C)C(=O)N[C@@H](CCCNC(=N)N)C(=O)N[C@@H](CO)C(=O)N[C@@H](CCC(=O)O)C(=O)N[C@@H](Cc1c[nH]c2ccccc12)C(=O)N[C@@H](CCCNC(=N)N)C(=O)N[C@@H](CC(N)=O)C(=O)N[C@@H](Cc1c[nH]c2ccccc12)C(=O)N[C@@H](CCCNC(=N)N)C(=O)N[C@@H](CCCCN)C(=O)N[C@@H](CO)C(=O)N[C@@H](CC(C)C)C(=O)N[C@@H](CCC(=O)O)C(=O)N[C@@H](CCSC)C(=O)N[C@@H](CCCNC(=N)N)C(=O)NCC(=O)N[C@@H](CCCNC(=N)N)C(=O)O [Ac437] (H-PVVRQILRSEWRNWRKSLEMRGR-OH; N-terminus and C-terminus assumed)
  MIC: 40 µM (≈ 118 µg/mL)

## CC(C)C[C@H](NC(=O)CNC(=O)[C@H](CS)NC(=O)[C@H](CO)NC(=O)CNC(=O)[C@H](CCCNC(=N)N)NC(=O)[C@H](CS)NC(=O)[C@H](CCCCN)NC(=O)[C@H](CO)NC(=O)[C@H](CC(C)C)NC(=O)[C@@H](NC(=O)[C@H](CC(N)=O)NC(=O)[C@H](CS)NC(=O)[C@H](C)NC(=O)[C@H](CCCNC(=N)N)NC(=O)[C@@H](N)Cc1c[nH]c2ccccc12)[C@@H](C)O)C(=O)N[C@@H](CCCNC(=N)N)C(=O)N[C@H](C(=O)N[C@@H](Cc1c[nH]c2ccccc12)C(=O)N[C@@H](C)C(=O)NCC(=O)N[C@@H](CCCNC(=N)N)C(=O)NCC(=O)O)C(C)C [Ac380] (H-WRACNTLSKCRGSCGLRVWAGRG-OH; N-terminus and C-terminus assumed)
  MIC: 40 µM (≈ 102 µg/mL)

## CC[C@H](C)[C@H](NC(=O)[C@H](CCCNC(=N)N)NC(=O)[C@H](CCCNC(=N)N)NC(=O)[C@H](CC(C)C)NC(=O)[C@H](CC(=O)O)NC(=O)[C@H](CCC(=O)O)NC(=O)[C@H](CCCNC(=N)N)NC(=O)[C@H](CC(C)C)NC(=O)[C@H](CCCNC(=N)N)NC(=O)CNC(=O)[C@H](CO)NC(=O)[C@H](Cc1ccccc1)NC(=O)[C@@H](NC(=O)[C@H](CC(C)C)NC(=O)[C@@H](NC(=O)CNC(=O)[C@H](Cc1ccccc1)NC(=O)[C@@H](NC(=O)[C@@H](NC(=O)CNC(=O)CN)C(C)C)C(C)C)C(C)C)[C@@H](C)O)C(=O)N[C@@H](CS)C(=O)N[C@@H](CCCNC(=N)N)C(=O)O [Ac338] (H-GGVVFGVLTFSGRLREDLRRICR-OH; N-terminus and C-terminus assumed)
  MBC: 30 µM (≈ 78.2 µg/mL)
  MIC: 30 µM (≈ 78.2 µg/mL)

## CC[C@H](C)[C@H](NC(=O)[C@H](CCC(N)=O)NC(=O)[C@H](CCCNC(=N)N)NC(=O)[C@H](CS)NC(=O)[C@@H](NC(=O)[C@H](CCCNC(=N)N)NC(=O)[C@H](CCCNC(=N)N)NC(=O)[C@H](CC(C)C)NC(=O)[C@H](CC(=O)O)NC(=O)[C@H](CCC(=O)O)NC(=O)[C@H](CCCNC(=N)N)NC(=O)[C@H](CC(C)C)NC(=O)[C@H](CCCNC(=N)N)NC(=O)CNC(=O)[C@@H](N)CO)[C@@H](C)CC)C(=O)N[C@@H](CO)C(=O)N[C@@H](C)C(=O)N[C@@H](Cc1ccc(O)cc1)C(=O)N[C@@H](CCCCN)C(=O)N[C@@H](CO)C(=O)N[C@@H](CC(=O)O)C(=O)N[C@@H](CO)C(=O)N[C@@H](CO)C(=O)O [Ac340] (H-SGRLREDLRRICRQISAYKSDSS-OH; N-terminus and C-terminus assumed)
  MBC: 40 µM (≈ 108 µg/mL)
  MIC: 40 µM (≈ 108 µg/mL)

## CC(C)C[C@H](NC(=O)[C@H](Cc1ccccc1)NC(=O)[C@H](CCCNC(=N)N)NC(=O)[C@H](CCCNC(=N)N)NC(=O)[C@H](CCCNC(=N)N)NC(=O)[C@H](CO)NC(=O)[C@H](CS)NC(=O)[C@@H](N)Cc1c[nH]c2ccccc12)C(=O)N[C@@H](C)C(=O)N[C@@H](CCCNC(=N)N)C(=O)N[C@@H](CS)C(=O)N[C@@H](Cc1c[nH]c2ccccc12)C(=O)N[C@@H](CCCNC(=N)N)C(=O)O [Ac496] (H-WCSRRRFLARCWR-OH; N-terminus and C-terminus assumed)
  MBC: 40 µM (≈ 71.8 µg/mL)
  MIC: 40 µM (≈ 71.8 µg/mL)

## CC[C@H](C)[C@H](NC(=O)[C@H](Cc1c[nH]c2ccccc12)NC(=O)[C@H](CCCNC(=N)N)NC(=O)[C@@H](N)CO)C(=O)N[C@@H](CS)C(=O)N[C@@H](CO)C(=O)N[C@@H](CCSC)C(=O)N[C@@H](C)C(=O)N[C@@H](CCCNC(=N)N)C(=O)N[C@@H](CCCNC(=N)N)C(=O)N[C@@H](CO)C(=O)N[C@@H](CCCNC(=N)N)C(=O)N[C@@H](CCCNC(=N)N)C(=O)N[C@@H](CCCNC(=N)N)C(=O)N[C@@H](CCCNC(=N)N)C(=O)N1CCC[C@H]1C(=O)NCC(=O)N[C@@H](CCCNC(=N)N)C(=O)N[C@@H](CO)C(=O)N[C@H](C(=O)N[C@@H](CCCNC(=N)N)C(=O)N[C@@H](CO)C(=O)N[C@@H](Cc1c[nH]c2ccccc12)C(=O)O)[C@@H](C)O [Ac390] (H-SRWICSMARRSRRRRPGRSTRSW-OH; N-terminus and C-terminus assumed)
  MBC: 40 µM (≈ 116 µg/mL)
  MIC: 40 µM (≈ 116 µg/mL)

## CC(C)C[C@H](NC(=O)[C@H](CS)NC(=O)[C@@H](NC(=O)[C@@H](NC(=O)[C@H](Cc1ccccc1)NC(=O)[C@H](Cc1c[nH]c2ccccc12)NC(=O)[C@@H](NC(=O)[C@H](CC(C)C)NC(=O)[C@H](Cc1ccccc1)NC(=O)[C@H](CS)NC(=O)[C@@H](NC(=O)[C@H](CC(N)=O)NC(=O)[C@@H](N)Cc1c[nH]cn1)[C@@H](C)O)[C@@H](C)O)[C@@H](C)O)[C@@H](C)O)C(=O)O [Ac472] (H-HNTCFLTWFTTCL-OH; N-terminus and C-terminus assumed)
  MIC: 15 µM (≈ 23.8 µg/mL)
  MIC (μM) for non-amidated Peptide: 15 µM
  bactericidal or bacteriostatic against A. baumannii: bacteriostatic
[1]
  MBC (μM): bacteriostat

## CSCC[C@H](NC(=O)[C@H](CC(C)C)NC(=O)[C@H](CCCCN)NC(=O)[C@H](CCCCN)NC(=O)[C@@H](NC(=O)[C@@H](NC(=O)[C@H](C)NC(=O)[C@H](Cc1ccccc1)NC(=O)[C@H](Cc1ccc(O)cc1)NC(=O)CNC(=O)[C@H](CS)NC(=O)[C@H](Cc1c[nH]cn1)NC(=O)[C@@H]1CCCN1C(=O)CNC(=O)CN)[C@@H](C)O)[C@@H](C)O)C(=O)N[C@@H](CCCNC(=N)N)C(=O)N[C@@H](CCCCN)C(=O)N[C@H](C(=O)N1CCC[C@H]1C(=O)NCC(=O)N[C@@H](CCCNC(=N)N)C(=O)N[C@@H](CC(C)C)C(=O)N[C@H](C(=O)O)C(C)C)C(C)C [Ac330] (H-GGPHCGYFATTKKLMRKVPGRLV-OH; N-terminus and C-terminus assumed)
A. baumannii (Table 8)
  MIC: 20 µM (≈ 50.3 µg/mL)
[1]
  MBC: 40 µM (≈ 101 µg/mL)
non-amidated peptide, strongly inhibitory against A. baumannii (Table 7)
  MIC (μM) for non-amidated Peptide: 20 µM

## CC[C@H](C)[C@H](NC(=O)[C@H](CCC(N)=O)NC(=O)[C@H](CCCNC(=N)N)NC(=O)[C@H](CS)NC(=O)[C@@H](NC(=O)[C@H](CCCNC(=N)N)NC(=O)[C@H](CCCNC(=N)N)NC(=O)[C@H](CC(C)C)NC(=O)[C@H](CC(=O)O)NC(=O)[C@H](CCC(=O)O)NC(=O)[C@H](CCCNC(=N)N)NC(=O)[C@H](CC(C)C)NC(=O)[C@H](CCCNC(=N)N)NC(=O)CNC(=O)[C@H](CO)NC(=O)[C@H](Cc1ccccc1)NC(=O)[C@@H](NC(=O)[C@H](CC(C)C)NC(=O)[C@@H](NC(=O)CN)C(C)C)[C@@H](C)O)[C@@H](C)CC)C(=O)N[C@@H](CO)C(=O)N[C@@H](C)C(=O)N[C@@H](Cc1ccc(O)cc1)C(=O)O [Ac339] (H-GVLTFSGRLREDLRRICRQISAY-OH; N-terminus and C-terminus assumed)
  MBC: 40 µM (≈ 108 µg/mL)
  MIC: 20 µM (≈ 54.2 µg/mL)
  MIC (μM) for non-amidated Peptide: 20 µM

## CC(C)C[C@H](NC(=O)CNC(=O)[C@H](CS)NC(=O)[C@H](CO)NC(=O)CNC(=O)[C@H](CCCNC(=N)N)NC(=O)[C@H](CS)NC(=O)[C@H](CCCCN)NC(=O)[C@H](CO)NC(=O)[C@H](CC(C)C)NC(=O)[C@@H](NC(=O)[C@H](CC(N)=O)NC(=O)[C@H](CS)NC(=O)[C@H](C)NC(=O)[C@H](CCCNC(=N)N)NC(=O)[C@H](Cc1c[nH]c2ccccc12)NC(=O)[C@H](CCCNC(=N)N)NC(=O)[C@H](Cc1c[nH]c2ccccc12)NC(=O)CNC(=O)[C@H](C)NC(=O)CN)[C@@H](C)O)C(=O)N[C@@H](CCCNC(=N)N)C(=O)N[C@H](C(=O)O)C(C)C [Ac379] (H-GAGWRWRACNTLSKCRGSCGLRV-OH; N-terminus and C-terminus assumed)
  MBC: 39 µM (≈ 99 µg/mL)
  MIC: 30 µM (≈ 76.1 µg/mL)
